Measured values taken from patent US11021490B2, “Pyridinium oxazole dyad scaffold and a process for preparation thereof” (COUNCIL OF SCIENTIFIC AND INDUSTRIAL RESEARCH, priority 2016, dated 2021).

How the values were obtained:
[1] = Spectral (photophysical) properties of representative derivatives in DCM at room temperature; format: physicochemical; design: τf (fluorescent lifetime): unit not given here; settings: for Effect of substituent on the fluorescent properties / emission: CH2Cl2 at RT; for ΔStokes (Stokes shift=λem−λabs) / λabs (maximum absorption band more than 300 nm) / λem (excited at the longest maximum absorption band) / λex (excited wavelength) / τf (fluorescent lifetime) / ϕf (quantum yield): DCM, RM, 10−5M; for ϕf (quantum yield): quinine sulfate and rhodamine 6G as standard
Source text: The photo-physical properties of representative salts are studied in CH2Cl2 at RT (FIG. 1).
The corresponding absorption, emission and excitation, spectra are depicted in FIGS. 3, 4 and 5. […] The compounds display good quantum yields upto 0.76.
a The maximum absorption bands more than 300 nm; b Excited at the longest maximum absorption band in CH2Cl2; ^cExcited wavelength; ^dStokes shift=λem−λabs; ^eQuinine sulfate and rhodamine 6G was used as the standard; ^fFluorescent lifetime
The current invention provides compounds that display brightly fluorescence as well as a good ϕf. The salts are a novel class of fluorescent materials that contain a pyridinium-oxazole functional group and the photo-physical properties of representative salts are studied in CH2Cl2 at RT The absorption and excitation maxima, the photoluminescence (PL) maxima and quantum yields (FF), as well as the excited state lifetimes (tf) of these compounds in CH2Cl2 solution are listed in Tables 3, whereas the corresponding absorption, emission, excitation spectra are depicted in FIGS. 3, 4 and 5. […] These observations are indicative of a predominant π-π* character for the lowest excited state, and the life time tf values are consistent with a singlet multiplicity. Most of these compounds display good quantum yields upto 0.76 (3n). The radiative rate constants are barely affected by the substitution pattern, an indication of the similar excited state character for all compounds.

MCF-7 cells = assay: Localization and staining of mitochondria in living MCF-7 cells by fluorescence microscopy, with MitoTracker Green costaining; format: cell-based; settings: 1 μM, 1 h
Protocol: MCF-7 cells were obtained from National Centre for Cell Science, Pune, India. For bio imaging purpose, the cells were seeded in a 6 well plate at a density of 10^5 cells/mL in Dulbecco's Modified Eagle's Medium+Ham's F12 containing 10% fetal bovine serum and a 0.1% antibiotic solution for 24 h at […] and 5% CO2 for adherence
MCF-7 cells (1×10^4 cells/mL/well) were seeded in a 6-well tissue culture plate for 48 h. The cells were then treated with 1 μM concentration of different organic molecules for 30 minutes. After thorough washing with 1×PBS (P^H 7.4), the cells are fixed used paraformaldehye (4% in PBS) for 15 minutes. Then cells were washed using 1×PBS twice. Further cells are permeated using 0.4% triton X in PBS for 30 seconds followed by treatment with 1 μg/mL of DAPI solution for 15 minutes. The cells are again ished twice with 1×PBS (P^H 7.4). Finally, a confocal fluorescence microscope (Nikon Eclipse: TE 2000-E, Japan). Bioimaging studies are carried out using red and green filters. (FIG. 2)
Cells are cultured and maintained as described above. Cells were treated with 1 μM compound for 30 min followed by washing with PBS. Further cells were treated with […] MG for 10 min and then washed with PBS. Cells were fixed and treated with DAPI as described above.
MCF-7 cells were incubated with 1 μM of 3n for 1 h, and excess dyes were washed away by buffer solution.

SMILES: F[B-](F)(F)F.c1ccc2c(c1)-c1cccc3oc(-c4cccc5ccccc45)c-2[n+]13
- melting point: 198 to 200 °C

SMILES: CC(C)c1ccc(-c2oc3cccc4[n+]3c2-c2ccccc2-4)cc1.F[B-](F)(F)F
- melting point: 214 to 215 °C

SMILES: F[B-](F)(F)F.c1ccc2c(c1)-c1cccc3oc(-c4ccc5ccccc5c4)c-2[n+]13 [3c, 1-(naphthalen-2-yl)benzo[a]oxazolo[4,3,2-cd]indolizin-10-iumtetrafluoroborate]
- Effect of substituent on the fluorescent properties / emission [1]: stronger effect on the fluorescent properties
- ΔStokes (Stokes shift=λem−λabs) [1]: 071 nm
- λabs (maximum absorption band more than 300 nm) [1]: 410 nm
- λem (excited at the longest maximum absorption band) [1]: 481 nm
- λex (excited wavelength) [1]: 364 nm
- τf (fluorescent lifetime) [1]: 5.2
- ϕf (quantum yield) [1]: 0.49

SMILES: Cc1ccc2c(c1)-c1cccc3oc(-c4ccccc4)c-2[n+]13.F[B-](F)(F)F
- melting point: 224 to 226 °C

SMILES: Clc1cccc(-c2oc3cccc4[n+]3c2-c2ccccc2-4)c1.F[B-](F)(F)F
- melting point: 204 to 206 °C

SMILES: Cc1ccc(-c2oc3cccc4[n+]3c2-c2ccccc2-4)cc1.F[B-](F)(F)F
- melting point: 222 to 223 °C

SMILES: Clc1ccc(-c2oc3cccc4[n+]3c2-c2ccccc2-4)cc1.F[B-](F)(F)F [3m, 1-(4-chlorophenyl)benzo[a]oxazolo[4,3,2-cd]indolizin-10-ium tetrafluoroborate]
- melting point: 274 to 275 °C
- ΔStokes (Stokes shift=λem−λabs) [1]: 040 nm
- λabs (maximum absorption band more than 300 nm) [1]: 370 nm
- λem (excited at the longest maximum absorption band) [1]: 410 nm
- λex (excited wavelength) [1]: 339 nm
- τf (fluorescent lifetime) [1]: 1.7
- ϕf (quantum yield) [1]: 0.19

SMILES: F[B-](F)(F)F.Fc1ccc(-c2oc3cccc4[n+]3c2-c2ccccc2-4)cc1 [3l, 1-(4-fluorophenyl)benzo[a]oxazolo[4,3,2-cd]indolizin-10-ium tetrafluoroborate]
- melting point: 254 to 255 °C
- Effect of substituent on the fluorescent properties / emission [1]: only a modest effect on the fluorescent properties
- ΔStokes (Stokes shift=λem−λabs) [1]: 042 nm
- λabs (maximum absorption band more than 300 nm) [1]: 372 nm
- λem (excited at the longest maximum absorption band) [1]: 414 nm
- λex (excited wavelength) [1]: 343 nm
- τf (fluorescent lifetime) [1]: 0.9
- ϕf (quantum yield) [1]: 0.09

SMILES: COc1ccc(-c2oc3cccc4[n+]3c2-c2ccccc2-4)cc1.F[B-](F)(F)F [3j, 1-(4-methoxyphenyl)benzo[a]oxazolo[4,3,2-cd]indolizin-10-ium tetrafluoroborate]
- melting point: 190 to 192 °C
- Effect of substituent on the fluorescent properties / emission [1]: only a modest effect on the fluorescent properties
- ΔStokes (Stokes shift=λem−λabs) [1]: 053 nm
- λabs (maximum absorption band more than 300 nm) [1]: 405 nm
- λem (excited at the longest maximum absorption band) [1]: 458 nm
- λex (excited wavelength) [1]: 338 nm
- τf (fluorescent lifetime) [1]: 2.4
- ϕf (quantum yield) [1]: 0.42

SMILES: F[B-](F)(F)F.Fc1ccc2c(c1)-c1cccc3oc(-c4ccccc4)c-2[n+]13
- melting point: 255 to 256 °C

SMILES: Cc1ccc(/C=c2\c3ccccc3c3cccc(=O)n23)cc1Cl [3z″, (E)-6-(3-chloro-4-methylbenzylidene)pyrido[2,1-a]isoindol-4(6H)-one]
- melting point: 194 to 195 °C

SMILES: F[B-](F)(F)F.c1ccc(-c2oc3cccc4[n+]3c2-c2ccccc2-4)cc1 [3a, 1-phenylbenzo[a]oxazolo[4,3,2-cd]indolizin-10-ium tetrafluoroborate]
- melting point: 192 to 193 °C
- ΔStokes (Stokes shift=λem−λabs) [1]: 036 nm
- λabs (maximum absorption band more than 300 nm) [1]: 368 nm
- λem (excited at the longest maximum absorption band) [1]: 404 nm
- λex (excited wavelength) [1]: 338 nm
- τf (fluorescent lifetime) [1]: 1.2
- ϕf (quantum yield) [1]: 0.10

SMILES: Cc1cccc2c1-c1cccc3oc(-c4ccccc4)c-2[n+]13.F[B-](F)(F)F
- melting point: 220 to 221 °C

SMILES: COc1ccc(Cl)c(-c2cc3ccccc3c3cccc(=O)n23)c1 [3y″, 6-(2-chloro-5-methoxyphenyl)-4H-pyrido[2,1-a]isoquinolin-4-one]
- melting point: 186 to 187 °C

SMILES: CCCCC(=O)c1ccc(-c2oc3cccc4[n+]3c2-c2ccccc2-4)cc1.F[B-](F)(F)F
- melting point: 202 to 204 °C

SMILES: COc1cccc(-c2oc3cccc4[n+]3c2-c2ccccc2-4)c1.F[B-](F)(F)F [3q, 1-(3-methoxyphenyl)benzo[a]oxazolo[4,3,2-cd]indolizin-10-ium tetrafluoroborate]
- melting point: 206 to 208 °C
- ΔStokes (Stokes shift=λem−λabs) [1]: 079 nm
- λabs (maximum absorption band more than 300 nm) [1]: 376 nm
- λem (excited at the longest maximum absorption band) [1]: 455 nm
- λex (excited wavelength) [1]: 332 nm
- τf (fluorescent lifetime) [1]: 2.0
- ϕf (quantum yield) [1]: 0.20

SMILES: CN(C)c1ccc(-c2oc3cccc4[n+]3c2-c2ccccc2-4)cc1.F[B-](F)(F)F [3n, 1-(4-(dimethylamino)phenyl)benzo[a]oxazolo[4,3,2-cd]indolizin-10-ium tetrafluoroborate]
- melting point: 242 to 244 °C
- Staining / localization in mitochondria (MCF-7 cells): stains specifically the mitochondrial region
- ΔStokes (Stokes shift=λem−λabs) [1]: 049 nm
- λabs (maximum absorption band more than 300 nm) [1]: 506 nm
- λem (excited at the longest maximum absorption band) [1]: 555 nm
- λex (excited wavelength) [1]: 511 nm
- τf (fluorescent lifetime) [1]: 9.1
- ϕf (quantum yield) [1]: 0.76

SMILES: CCCCOc1ccc(-c2oc3cccc4[n+]3c2-c2ccccc2-4)cc1.F[B-](F)(F)F
- melting point: 183 to 185 °C

SMILES: Clc1ccc2c(c1)-c1cccc3oc(-c4ccccc4)c-2[n+]13.F[B-](F)(F)F
- melting point: 208 to 210 °C

SMILES: Clc1ccc2c(c1)-c1c(-c3ccccc3)oc3cccc-2[n+]13.F[B-](F)(F)F
- melting point: 206 to 208 °C

SMILES: F[B-](F)(F)F.c1ccc2c(c1)-c1cccc3oc(-c4cc5ccccc5c5ccccc45)c-2[n+]13 [3d, 1-(phenanthren-9-yl)benzo[a]oxazolo[4,3,2-cd]indolizin-10-ium tetrafluoroborate]
- melting point: 230 to 232 °C
- Effect of substituent on the fluorescent properties / emission [1]: stronger effect on the fluorescent properties
- ΔStokes (Stokes shift=λem−λabs) [1]: 076 nm
- λabs (maximum absorption band more than 300 nm) [1]: 411 nm
- λem (excited at the longest maximum absorption band) [1]: 487 nm
- λex (excited wavelength) [1]: 365 nm
- τf (fluorescent lifetime) [1]: 7.2
- ϕf (quantum yield) [1]: 0.54

SMILES: COc1ccccc1-c1oc2cccc3[n+]2c1-c1ccccc1-3.F[B-](F)(F)F
- melting point: 228 to 229 °C
